Assay results taken from patent US4945097A, “Aryl-cycloalkyl-alkanolamines for treatment of neurotoxic injury” (priority 1987, dated 1990).

Experiments:
[1] = test system: KA neurotoxicity in 15-day old chick embryo retina; assay: NMDA/KA Antagonist Assay: prevention of KA neurotoxicity in chick embryo retina; type: cell-based; set-up: key: --: A dash signifies no antagonist action; conditions: KA 25 μM, retina incubated 30 min at 37° C in BSS
Experimental: A 15-day old chick embryo retina, incubated for 30 min. in a balanced sat solution (BSS) containing 1 mM Glu, developed a full lesion resembling that described in the immature mouse retina following s.c. administration of Glu. Other excitotoxin agonists also produce acute lesions within 30 min., each agent being effective at a concentration proportional to its known excitatory and toxic potencies. The pattern of cellular degeneration is restricted in each case to the ganglion cell, inner plexiform and inner nuclear layers, but within these areas certain agonists induce different patterns of degeneration, the differences being most pronounced between NMA and KA. Two agonists were employed in the present test, each at a concentration established previously to be the lowest concentration required to consistently cause a fully-developed retinal lesion: KA (25 μM) and NMA (200 μM). Procyclidine, biperiden and trihexyphenidyl were tested at various concentrations for their ability to prevent KA or NMA neurotoxicity. […] Internal controls in each experiment consisted of at least six specimens being incubated with agonist alone. A typical toxic reaction had to be present in all controls and absent from all experimental specimens in order to qualify as a blocking effect. The method of tissue preparation was as follows: 15-day old chick embryos were decapitated and their eyes removed and cut into quadrants after excising the cornea and removing the lens, vitreous and iris. The retinal quadrants were then gently separated from the pigment epithelium and incubated for 30 min. at 37° C. in BSS to which an agonist or agonist plus antagonist was added. The BSS contained 140 mM Na^+, 5.0 mM K^+, 0.5 mM Ca^++, […], 150 mM Cl^-, 5.6 mM glucose and bicarbonate/phosphate buffer (pH 7.3). After incubation for 30 min., the retinal quadrants were fixed by immersion in phosphate-buffered solution containing 1.5% glutaraldehyde and 1% paraformaldehyde, then additionally fixed in 1% osmium tetroxide, dehydrated in graded ethanols, cleared in toluene and embedded in araldite. […]

[2] = test system: NMA neurotoxicity in 15-day old chick embryo retina; assay: NMDA/KA Antagonist Assay: prevention of NMA neurotoxicity in chick embryo retina; type: cell-based; conditions: Gallus gallus, 0.5 h; NMA 200 μM, retina incubated 30 min at 37° C in BSS, complete protection in all specimens (n>6); read-out: antagonist potency vs NMA: concentration required to totally prevent a neurotoxic reaction
Experimental: Two agonists were employed in the present test, each at a concentration established previously to be the lowest concentration required to consistently cause a fully-developed retinal lesion: KA (25 μM) and NMA (200 μM). […] Internal controls in each experiment consisted of at least six specimens being incubated with agonist alone. […] The method of tissue preparation was as follows: 15-day old chick embryos were decapitated and their eyes removed and cut into quadrants after excising the cornea and removing the lens, vitreous and iris. The retinal quadrants were then gently separated from the pigment epithelium and incubated for 30 min. at 37° C. in BSS to which an agonist or agonist plus antagonist was added. The BSS contained 140 mM Na^+, 5.0 mM K^+, 0.5 mM Ca^++, 4 5 mM mG^++, 150 mM Cl^-, 5.6 mM glucose and bicarbonate/phosphate buffer (pH 7.3). After incubation for 30 min., the retinal quadrants were fixed by immersion in phosphate-buffered solution containing 1.5% glutaraldehyde and 1% paraformaldehyde, then additionally fixed in 1% osmium tetroxide, dehydrated in graded ethanols, cleared in toluene and embedded in araldite. Sections were cut 1 micron thick on a Sorval ultratome and stained with Methylene blue/Azure 11 for histopathological evaluation by light microscopy.

[3] = test system: H/I neuronal degeneration in Sprague Dawley rats, 10 days old; type: in vivo
Experimental: A total of 30 Sprague Dawley rats, 10 days old, were used in this assay. Ten pups (5 control and 5 experimental) were studied on each of 3 separate days, the protocol being the same each day. A unilateral carotid ligation was performed under halothane anesthesia, and the incision was closed with super glue. After recovery from anesthesia, the experimental pups were given a subcutaneous injection of procyclidine (50 mg/kg in 0.1 ml aqueous solution, pH 7.4) and controls an equal volume sc injection of normal saline. Immediately thereafter, all 10 of the pups (half control and half experimental) were placed together in a large sealed transparent chamber and a partial vacuum was gradually created (pressure reduced from 760 to 200 mm Hg over a 1 minute period). A water bath surrounding the bottom half of the chamber kept the temperature inside at 38° C. After 75 minutes the pressure was returned gradually to 760 mm Hg over a 1 minute interval and, after a 2 hour observation period, the pups were anesthetized, the neck incision opened and the ligature removed from the carotid (a piece of tubing had originally been placed between the suture and vessel wall to facilitate subsequent removal of the suture without damage to the vessel wall). While still under anesthesia, the pups were sacrificed by perfusion fixation with aldehyde fixatives. Since the ligature had been removed from the occluded carotid, perfusate was able to distribute equally to the two hemispheres. After 15 minutes of perfusion, the brains were removed and sliced in 1 mm thick transverse slabs which were post fixed in osmium tetroxide, dehydrated in graded ethanols, cleared in toluene and embedded flat in araldite [J. W. Olney, "Glutamate-Induced Neuronal Necrosis In The Infant Mouse Hypothalamus: An Electron Microscopic Study", Neuropthol. Exp. Neurol., 30, 75-90 (1971)]. Sections (1 micron thick) were cut at 40 micron intervals and stained with azure II/methylene blue to permit a systematic microscopic evaluation of all regions of interest in each brain. In a large number of control infant rats (n>100) subjected to the above hypobaric/ischemic conditions, there has been shown a 90% survival rate (10% die in the hypobaric chamber) and a 94% incidence of brain damage which is always confined unilaterally to the side of the carotid ligation [J. M. Olney, "Hypoxia-Ischemia Causes Glutamate-Like Neuropathological changes in Infant Rat Brain", Neurosci Abst., 13, 1553 (1987)]. […] The damage in control rats consists of unilateral disseminated acute neuronal degeneration in some or all of the following regions: medial habenulum, dentate hippocampal gyrus, caudate nucleus, olfactory tubercle, islands of calleja, fronto-parietal neocortex and several thalamic nuclei. Two of 15 control and 2 of 15 experimental infants died in the hypobaric chamber. […] Among the 13 surviving procyclidine-treated pups, 10 had no damage in any of the above brain regions, 3 had small attenuated lesions, limited in two pups to the medial habenulum and in one to the caudate. […] Signs such as ataxia, head and body weaving, prostration and respiratory depression, which are sometimes seen in animals treated with antiexcitotoxic drugs, were not observed.

Compound | antagonist potency vs KA: concentration required to totally prevent a neurotoxic reaction [1] | EC100 [2] | treated animals with total protection against H/I neuronal degeneration ([3]; 50 mg/kg sc) | number of surviving treated pups with no damage in any of the brain regions ([3]; 50 mg/kg sc, 13 surviving treated pups, carotid ligation plus 75 min hypobaric) | number of surviving treated pups with small attenuated lesions ([3]; 50 mg/kg sc, 13 surviving treated pups, two limited to medial habenulum, one to caudate) | treated animals with markedly reduced severity of neuropathology ([3]; 50 mg/kg sc, the remaining animals) | side effects of the single dose ([3]; rat, in vivo)
OC(CCN1CCCCC1)(c1ccccc1)C1CC2C=CC1C2 (stereo not drawn) [Biperiden, α-bicyclo[2.2.1]hept-5-en-2-yl-α-phenyl-1-piperidinepropanol] | -- | 200 µM |  |  |  |  | 
OC(CCN1CCCC1)(c1ccccc1)C1CCCCC1 (stereo not drawn) [Procyclidine, α-cyclohexyl-α-phenyl-1-pyrrolidinepropanol] | -- |  | ~80% | 10 | 3 | 20% | minimal side effects
OC(CCN1CCCCC1)(c1ccccc1)C1CCCCC1 (stereo not drawn) [Trihexyphenidyl, α-cyclohexyl-α-phenyl-1-piperidinepropanol] | -- | 125 µM |  |  |  |  | 
